Numbers after ± are expanded uncertainties.
Test: mn = molality of the nth substance listed, in mol/kg
Details: 350 kPa, Liquid; for apparent molar heat capacity: Extra sensitive DSC

For `OC[C@@H](O)[C@@H](O)[C@H](O)[C@@H](O)CO` [D-sorbitol] + O, the “apparent molar heat capacity” value (278.15 K, m1 = 0.02) was 373 ± 52 J/K/mol, the “apparent molar heat capacity” value (278.15 K, m1 = 0.04) was 346.7 ± 26 J/K/mol and the “apparent molar heat capacity” value (278.15 K, m1 = 0.069) was 355.4 ± 16 J/K/mol. The “apparent molar heat capacity” value (278.15 K, m1 = 0.1997) was 360.1 ± 8.7 J/K/mol, the “apparent molar heat capacity” value (278.15 K, m1 = 0.4003) was 363.3 ± 6.9 J/K/mol and the “apparent molar heat capacity” value (278.15 K, m1 = 0.6991) was 367.7 ± 6.1 J/K/mol. For the same molecule, the “apparent molar heat capacity” value (278.15 K, m1 = 0.9784) was 372.3 ± 5.8 J/K/mol, the “apparent molar heat capacity” value (278.15 K, m1 = 1.501) was 372.1 ± 5.2 J/K/mol and the “apparent molar heat capacity” value (278.15 K, m1 = 2.004) was 383.7 ± 4.9 J/K/mol. It also gave a mass density (278.15 K, m1 = 0.02) of 1001.46 ± 0.18 kg/m3, a mass density (278.15 K, m1 = 0.04) of 1002.79 ± 0.18 kg/m3 and a mass density (278.15 K, m1 = 0.069) of 1005.09 ± 0.19 kg/m3. The mass density (278.15 K, m1 = 0.1997) was 1013.23 ± 0.2 kg/m3, the mass density (278.15 K, m1 = 0.4003) was 1025.52 ± 0.22 kg/m3 and the mass density (278.15 K, m1 = 0.6991) was 1042.94 ± 0.26 kg/m3. The mass density (278.15 K, m1 = 0.9784) was 1057.65 ± 0.29 kg/m3, the mass density (278.15 K, m1 = 1.501) was 1082.71 ± 0.34 kg/m3 and the mass density (278.15 K, m1 = 2.004) was 1104.6 ± 0.38 kg/m3. The “apparent molar heat capacity” value (283.15 K, m1 = 0.02) was 391 ± 51 J/K/mol, the “apparent molar heat capacity” value (283.15 K, m1 = 0.04) was 366.7 ± 26 J/K/mol and the “apparent molar heat capacity” value (283.15 K, m1 = 0.069) was 374.6 ± 16 J/K/mol. The “apparent molar heat capacity” value (283.15 K, m1 = 0.1997) was 378.8 ± 8.1 J/K/mol, the “apparent molar heat capacity” value (283.15 K, m1 = 0.4003) was 381.8 ± 6.3 J/K/mol and the “apparent molar heat capacity” value (283.15 K, m1 = 0.6991) was 385.6 ± 5.5 J/K/mol. For the same molecule, the “apparent molar heat capacity” value (283.15 K, m1 = 0.9784) was 389.4 ± 5 J/K/mol, the “apparent molar heat capacity” value (283.15 K, m1 = 1.501) was 389.4 ± 4.6 J/K/mol and the “apparent molar heat capacity” value (283.15 K, m1 = 2.004) was 399.4 ± 4.4 J/K/mol. The mass density (283.15 K, m1 = 0.02) was 1001.14 ± 0.18 kg/m3, the mass density (283.15 K, m1 = 0.04) was 1002.47 ± 0.18 kg/m3 and the mass density (283.15 K, m1 = 0.069) was 1004.71 ± 0.19 kg/m3. For the same molecule, the mass density (283.15 K, m1 = 0.1997) was 1012.74 ± 0.2 kg/m3, the mass density (283.15 K, m1 = 0.4003) was 1024.88 ± 0.22 kg/m3 and the mass density (283.15 K, m1 = 0.6991) was 1042.11 ± 0.26 kg/m3. The mass density (283.15 K, m1 = 0.9784) was 1056.73 ± 0.28 kg/m3, the mass density (283.15 K, m1 = 1.501) was 1081.57 ± 0.34 kg/m3 and the mass density (283.15 K, m1 = 2.004) was 1103.19 ± 0.38 kg/m3. The “apparent molar heat capacity” value (288.15 K, m1 = 0.02) was 406 ± 51 J/K/mol, the “apparent molar heat capacity” value (288.15 K, m1 = 0.04) was 382.5 ± 26 J/K/mol and the “apparent molar heat capacity” value (288.15 K, m1 = 0.069) was 389.8 ± 16 J/K/mol. The “apparent molar heat capacity” value (288.15 K, m1 = 0.1997) was 393.7 ± 7.9 J/K/mol, the “apparent molar heat capacity” value (288.15 K, m1 = 0.4003) was 396.3 ± 6.2 J/K/mol and the “apparent molar heat capacity” value (288.15 K, m1 = 0.6991) was 399.5 ± 5.3 J/K/mol. For the same molecule, the “apparent molar heat capacity” value (288.15 K, m1 = 0.9784) was 402.8 ± 4.9 J/K/mol, the “apparent molar heat capacity” value (288.15 K, m1 = 1.501) was 402 ± 4.4 J/K/mol and the “apparent molar heat capacity” value (288.15 K, m1 = 2.004) was 411.5 ± 4.2 J/K/mol. For the same molecule, the mass density (288.15 K, m1 = 0.02) was 1000.48 ± 0.18 kg/m3, the mass density (288.15 K, m1 = 0.04) was 1001.81 ± 0.18 kg/m3 and the mass density (288.15 K, m1 = 0.069) was 1003.99 ± 0.18 kg/m3. For the same molecule, the mass density (288.15 K, m1 = 0.1997) was 1011.95 ± 0.2 kg/m3, the mass density (288.15 K, m1 = 0.4003) was 1023.96 ± 0.22 kg/m3 and the mass density (288.15 K, m1 = 0.6991) was 1041 ± 0.25 kg/m3. The mass density (288.15 K, m1 = 0.9784) was 1055.55 ± 0.28 kg/m3, the mass density (288.15 K, m1 = 1.501) was 1080.23 ± 0.33 kg/m3 and the mass density (288.15 K, m1 = 2.004) was 1101.6 ± 0.38 kg/m3. For the same molecule, the “apparent molar heat capacity” value (293.15 K, m1 = 0.02) was 418 ± 51 J/K/mol, the “apparent molar heat capacity” value (293.15 K, m1 = 0.04) was 395.4 ± 26 J/K/mol and the “apparent molar heat capacity” value (293.15 K, m1 = 0.069) was 402.5 ± 16 J/K/mol. For the same molecule, the “apparent molar heat capacity” value (293.15 K, m1 = 0.1997) was 406.4 ± 7.8 J/K/mol, the “apparent molar heat capacity” value (293.15 K, m1 = 0.4003) was 408.9 ± 6 J/K/mol and the “apparent molar heat capacity” value (293.15 K, m1 = 0.6991) was 411.6 ± 5.2 J/K/mol. The “apparent molar heat capacity” value (293.15 K, m1 = 0.9784) was 414.4 ± 4.7 J/K/mol, the “apparent molar heat capacity” value (293.15 K, m1 = 1.501) was 413.2 ± 4.2 J/K/mol and the “apparent molar heat capacity” value (293.15 K, m1 = 2.004) was 422 ± 4 J/K/mol. For the same molecule, the “apparent molar heat capacity” value (298.15 K, m1 = 0.02) was 429 ± 51 J/K/mol, the “apparent molar heat capacity” value (298.15 K, m1 = 0.04) was 406.9 ± 26 J/K/mol and the “apparent molar heat capacity” value (298.15 K, m1 = 0.069) was 413.8 ± 16 J/K/mol. The “apparent molar heat capacity” value (298.15 K, m1 = 0.1997) was 417.4 ± 7.8 J/K/mol, the “apparent molar heat capacity” value (298.15 K, m1 = 0.4003) was 419.5 ± 5.8 J/K/mol and the “apparent molar heat capacity” value (298.15 K, m1 = 0.6991) was 421.9 ± 5 J/K/mol. For the same molecule, the “apparent molar heat capacity” value (298.15 K, m1 = 0.9784) was 424.4 ± 4.7 J/K/mol, the “apparent molar heat capacity” value (298.15 K, m1 = 1.501) was 422.7 ± 4.2 J/K/mol and the “apparent molar heat capacity” value (298.15 K, m1 = 2.004) was 430.9 ± 3.8 J/K/mol. It also gave a mass density (298.15 K, m1 = 0.02) of 998.4 ± 0.18 kg/m3, a mass density (298.15 K, m1 = 0.04) of 999.67 ± 0.18 kg/m3 and a mass density (298.15 K, m1 = 0.069) of 1001.72 ± 0.18 kg/m3. The mass density (298.15 K, m1 = 0.1997) was 1009.58 ± 0.19 kg/m3, the mass density (298.15 K, m1 = 0.4003) was 1021.39 ± 0.22 kg/m3 and the mass density (298.15 K, m1 = 0.6991) was 1038.13 ± 0.25 kg/m3. It also gave a mass density (298.15 K, m1 = 0.9784) of 1052.5 ± 0.28 kg/m3, a mass density (298.15 K, m1 = 1.501) of 1076.86 ± 0.33 kg/m3 and a mass density (298.15 K, m1 = 2.004) of 1097.81 ± 0.37 kg/m3. For the same molecule, the “apparent molar heat capacity” value (303.15 K, m1 = 0.02) was 439 ± 51 J/K/mol, the “apparent molar heat capacity” value (303.15 K, m1 = 0.04) was 417.1 ± 26 J/K/mol and the “apparent molar heat capacity” value (303.15 K, m1 = 0.069) was 423.6 ± 16 J/K/mol. For the same molecule, the “apparent molar heat capacity” value (303.15 K, m1 = 0.1997) was 426.9 ± 7.6 J/K/mol, the “apparent molar heat capacity” value (303.15 K, m1 = 0.4003) was 428.9 ± 5.7 J/K/mol and the “apparent molar heat capacity” value (303.15 K, m1 = 0.6991) was 430.9 ± 5 J/K/mol. The “apparent molar heat capacity” value (303.15 K, m1 = 0.9784) was 433.1 ± 4.5 J/K/mol, the “apparent molar heat capacity” value (303.15 K, m1 = 1.501) was 431.1 ± 4 J/K/mol and the “apparent molar heat capacity” value (303.15 K, m1 = 2.004) was 438.8 ± 3.8 J/K/mol. The “apparent molar heat capacity” value (308.15 K, m1 = 0.02) was 447 ± 51 J/K/mol, the “apparent molar heat capacity” value (308.15 K, m1 = 0.04) was 425.7 ± 26 J/K/mol and the “apparent molar heat capacity” value (308.15 K, m1 = 0.069) was 432 ± 16 J/K/mol. For the same molecule, the “apparent molar heat capacity” value (308.15 K, m1 = 0.1997) was 435.3 ± 7.6 J/K/mol, the “apparent molar heat capacity” value (308.15 K, m1 = 0.4003) was 437 ± 5.7 J/K/mol and the “apparent molar heat capacity” value (308.15 K, m1 = 0.6991) was 438.8 ± 4.8 J/K/mol. For the same molecule, the “apparent molar heat capacity” value (308.15 K, m1 = 0.9784) was 440.7 ± 4.5 J/K/mol, the “apparent molar heat capacity” value (308.15 K, m1 = 1.501) was 438.4 ± 4.1 J/K/mol and the “apparent molar heat capacity” value (308.15 K, m1 = 2.004) was 445.8 ± 3.8 J/K/mol. For the same molecule, the mass density (308.15 K, m1 = 0.02) was 995.35 ± 0.19 kg/m3, the mass density (308.15 K, m1 = 0.04) was 996.6 ± 0.18 kg/m3 and the mass density (308.15 K, m1 = 0.069) was 998.45 ± 0.18 kg/m3. For the same molecule, the mass density (308.15 K, m1 = 0.1997) was 1006.4 ± 0.19 kg/m3, the mass density (308.15 K, m1 = 0.4003) was 1018.06 ± 0.21 kg/m3 and the mass density (308.15 K, m1 = 0.6991) was 1034.6 ± 0.24 kg/m3. For the same molecule, the mass density (308.15 K, m1 = 0.9784) was 1048.63 ± 0.27 kg/m3, the mass density (308.15 K, m1 = 1.501) was 1072.81 ± 0.32 kg/m3 and the mass density (308.15 K, m1 = 2.004) was 1093.63 ± 0.36 kg/m3. For the same molecule, the “apparent molar heat capacity” value (313.15 K, m1 = 0.02) was 455 ± 51 J/K/mol, the “apparent molar heat capacity” value (313.15 K, m1 = 0.04) was 432.5 ± 26 J/K/mol and the “apparent molar heat capacity” value (313.15 K, m1 = 0.069) was 439.5 ± 16 J/K/mol. For the same molecule, the “apparent molar heat capacity” value (313.15 K, m1 = 0.1997) was 442.6 ± 7.7 J/K/mol, the “apparent molar heat capacity” value (313.15 K, m1 = 0.4003) was 444.2 ± 5.7 J/K/mol and the “apparent molar heat capacity” value (313.15 K, m1 = 0.6991) was 445.8 ± 4.8 J/K/mol. For the same molecule, the “apparent molar heat capacity” value (313.15 K, m1 = 0.9784) was 447.5 ± 4.3 J/K/mol, the “apparent molar heat capacity” value (313.15 K, m1 = 1.501) was 445.1 ± 4.1 J/K/mol and the “apparent molar heat capacity” value (313.15 K, m1 = 2.004) was 452.2 ± 3.6 J/K/mol. The “apparent molar heat capacity” value (318.15 K, m1 = 0.02) was 462 ± 51 J/K/mol, the “apparent molar heat capacity” value (318.15 K, m1 = 0.04) was 439.7 ± 26 J/K/mol and the “apparent molar heat capacity” value (318.15 K, m1 = 0.069) was 446.1 ± 16 J/K/mol. The “apparent molar heat capacity” value (318.15 K, m1 = 0.1997) was 449.1 ± 7.5 J/K/mol, the “apparent molar heat capacity” value (318.15 K, m1 = 0.4003) was 450.6 ± 5.5 J/K/mol and the “apparent molar heat capacity” value (318.15 K, m1 = 0.6991) was 452 ± 4.8 J/K/mol. For the same molecule, the “apparent molar heat capacity” value (318.15 K, m1 = 0.9784) was 453.6 ± 4.3 J/K/mol, the “apparent molar heat capacity” value (318.15 K, m1 = 1.501) was 451 ± 3.9 J/K/mol and the “apparent molar heat capacity” value (318.15 K, m1 = 2.004) was 457.8 ± 3.7 J/K/mol. For the same molecule, the mass density (318.15 K, m1 = 0.02) was 991.53 ± 0.2 kg/m3, the mass density (318.15 K, m1 = 0.04) was 992.78 ± 0.19 kg/m3 and the mass density (318.15 K, m1 = 0.069) was 994.56 ± 0.18 kg/m3. For the same molecule, the mass density (318.15 K, m1 = 0.1997) was 1002.41 ± 0.18 kg/m3.

Source: the NIST ThermoML archive (doi:10.1016/j.jct.2006.08.009)
